Test results: US20260207490A1, “Hydroxydiphenylethane compound ointment, use thereof, and method for preparing same” (Cutia Therapeutics (Wuxi) Co., Ltd., priority 2022, published 2026)

Columns and labels:
[1] = Saturated solubility in medium-chain triglycerides / isopropyl myristate / light liquid paraffin mixtures; type: physicochemical; details: for Saturation solubility of 2-isopropyl-5-(2′-phenylethyl)-1,3-benzenediol: room temperature
Description: Experimental variables A, B, and C were set as the content of medium-chain triglycerides (%), isopropyl myristate (%), and light liquid paraffin (%), respectively (for the convenience of experimental design and operation, light liquid paraffin was used to represent all hydrocarbon compounds). According to the maximum safe dosage of excipients (FDA IID database), the variable range was set as follows: 0<A≤20, 0<B≤20. According to the preliminary experimental results (medium-chain triglycerides are more important for the dissolution of API and the stability of the system) and the requirements for the viscosity and skin feel of the ointment, the constraints were set as follows: A>B; A+B≤25%; A+B+C=100%.
According to the variable range and constraint conditions, a total of 20 experimental formulations were designed. After the components were mixed evenly in proportion, an excess of 2-isopropyl-5-(2′-phenylethyl)-1,3-benzenediol was added, stirred overnight at room temperature, centrifuged, the supernatant was filtered and diluted, and the saturated solubility of 2-isopropyl-5-(2′-phenylethyl)-1,3-benzenediol was tested.
The saturated solubility of 2-isopropyl-5-(2′-phenylethyl)-1,3-benzenediol in different proportions of medium-chain triglycerides, isopropyl myristate and light liquid paraffin solution was investigated to verify the accuracy of the prediction equation. The equation can accurately predict the solubility of API in different proportions of excipients. In practical applications, it is acceptable that the API content is within the range of no more than 1.2 times the saturated solubility, that is, 120%×(0.445829×A+0.032300×B−0.000599×C+0.008112×A×B−0.003841×A×C). Preferably, when the content of the active ingredient in the preparation is not higher than 0.445829×A+0.032300×B−0.000599×C+0.008112×A×B−0.003841×A×C, a better solution-type ointment can be prepared. It is further preferred that the content of the active ingredient in the preparation is not higher than 90% of the saturated solubility, that is, the content of the active ingredient in the preparation is not higher than 90%×(0.445829×A+0.032300×B−0.000599×C+0.008112×A×B−0.003841×A×C).

[2] = Saturated solubility in different excipients; type: physicochemical

Saturation solubility of 2-isopropyl-5-(2′-phenylethyl)-1,3-benzenediol ([1]; experimental formulation 1: MCT 5.97%, isopropyl myristate 5.97%, light liquid paraffin 88.06%): 1.09%
Saturation solubility of 2-isopropyl-5-(2′-phenylethyl)-1,3-benzenediol ([1]; experimental formulation 2: MCT 6.63%, isopropyl myristate 6.63%, light liquid paraffin 86.74%): 1.22%
Saturation solubility of 2-isopropyl-5-(2′-phenylethyl)-1,3-benzenediol ([1]; experimental formulation 3: MCT 20.00%, isopropyl myristate 0.00%, light liquid paraffin 80.00%): 2.47%
Saturation solubility of 2-isopropyl-5-(2′-phenylethyl)-1,3-benzenediol ([1]; experimental formulation 4: MCT 2.00%, isopropyl myristate 0.00%, light liquid paraffin 98.00%): 0.11%
Saturation solubility of 2-isopropyl-5-(2′-phenylethyl)-1,3-benzenediol ([1]; experimental formulation 5: MCT 12.50%, isopropyl myristate 12.50%, light liquid paraffin 75.00%): 3.78%
Saturation solubility of 2-isopropyl-5-(2′-phenylethyl)-1,3-benzenediol ([1]; experimental formulation 6: MCT 16.15%, isopropyl myristate 0.00%, light liquid paraffin 83.85%): 2.07%
Saturation solubility of 2-isopropyl-5-(2′-phenylethyl)-1,3-benzenediol ([1]; experimental formulation 7: MCT 20.00%, isopropyl myristate 0.00%, light liquid paraffin 80.00%): 2.91%
Saturation solubility of 2-isopropyl-5-(2′-phenylethyl)-1,3-benzenediol ([1]; experimental formulation 8: MCT 18.79%, isopropyl myristate 6.21%, light liquid paraffin 75.00%): 4.13%
Saturation solubility of 2-isopropyl-5-(2′-phenylethyl)-1,3-benzenediol ([1]; experimental formulation 9: MCT 11.30%, isopropyl myristate 3.90%, light liquid paraffin 84.80%): 1.73%
Saturation solubility of 2-isopropyl-5-(2′-phenylethyl)-1,3-benzenediol ([1]; experimental formulation 10: MCT 11.62%, isopropyl myristate 2.02%, light liquid paraffin 86.36%): 1.55%
Saturation solubility of 2-isopropyl-5-(2′-phenylethyl)-1,3-benzenediol ([1]; experimental formulation 11: MCT 10.84%, isopropyl myristate 0.00%, light liquid paraffin 89.16%): 1.05%
Saturation solubility of 2-isopropyl-5-(2′-phenylethyl)-1,3-benzenediol ([1]; experimental formulation 12: MCT 12.50%, isopropyl myristate 12.50%, light liquid paraffin 75.00%): 3.42%
Saturation solubility of 2-isopropyl-5-(2′-phenylethyl)-1,3-benzenediol ([1]; experimental formulation 13: MCT 9.35%, isopropyl myristate 8.77%, light liquid paraffin 81.88%): 2.20%
Saturation solubility of 2-isopropyl-5-(2′-phenylethyl)-1,3-benzenediol ([1]; experimental formulation 14: MCT 17.87%, isopropyl myristate 7.13%, light liquid paraffin 75.00%): 4.11%
Saturation solubility of 2-isopropyl-5-(2′-phenylethyl)-1,3-benzenediol ([1]; experimental formulation 15: MCT 10.84%, isopropyl myristate 0.00%, light liquid paraffin 89.16%): 1.06%
Saturation solubility of 2-isopropyl-5-(2′-phenylethyl)-1,3-benzenediol ([1]; experimental formulation 16: MCT 15.17%, isopropyl myristate 4.03%, light liquid paraffin 80.80%): 2.65%
Saturation solubility of 2-isopropyl-5-(2′-phenylethyl)-1,3-benzenediol ([1]; experimental formulation 17: MCT 13.29%, isopropyl myristate 8.31%, light liquid paraffin 78.40%): 3.98%
Saturation solubility of 2-isopropyl-5-(2′-phenylethyl)-1,3-benzenediol ([1]; experimental formulation 18: MCT 5.84%, isopropyl myristate 1.16%, light liquid paraffin 93.00%): 0.48%
Saturation solubility of 2-isopropyl-5-(2′-phenylethyl)-1,3-benzenediol ([1]; experimental formulation 19: MCT 2.00%, isopropyl myristate 0.00%, light liquid paraffin 98.00%): 0.09%
Saturation solubility of 2-isopropyl-5-(2′-phenylethyl)-1,3-benzenediol ([1]; experimental formulation 20: MCT 18.79%, isopropyl myristate 6.21%, light liquid paraffin 75.00%): 3.95%
Measured saturated solubility ([1]; validation group 1: MCT 20%, isopropyl myristate 0.85%, light liquid paraffin 79.15%): 3.32%
Measured saturated solubility ([1]; validation group 2: MCT 20%, isopropyl myristate 3.4%, light liquid paraffin 76.6%): 3.85%
Measured saturated solubility ([1]; validation group 3: MCT 13.75%, isopropyl myristate 9.23%, light liquid paraffin 77.02%): 3.52%
Measured saturated solubility ([1]; validation group 4: MCT 11.2%, isopropyl myristate 7.55%, light liquid paraffin 81.25%): 2.56%
Measured saturated solubility ([1]; validation group 5: MCT 8.72%, isopropyl myristate 5.04%, light liquid paraffin 86.24%): 1.58%
Measured saturated solubility ([1]; validation group 6: MCT 3%, isopropyl myristate 3%, light liquid paraffin 94%): 0.401%
Measured saturated solubility ([1]; validation group 7: MCT 2%, isopropyl myristate 2%, light liquid paraffin 96%): 0.203%
saturated solubility ([2]; in 10% glycerol): 0.00007%
saturated solubility ([2]; in 20% ethanol): 0.02%
saturated solubility ([2]; in Span 80): 3%
saturated solubility ([2]; in diethylene glycol monoethyl ether): 52%
saturated solubility ([2]; in isopropyl myristate): 27%
saturated solubility ([2]; in isopropyl palmitate): 23%
saturated solubility ([2]; in light liquid paraffin): 0.01%
saturated solubility ([2]; in medium-chain triglycerides): 27%
saturated solubility ([2]; in polyethylene glycol 400): 30%
saturated solubility ([2]; in polysorbate 80): 17%
saturated solubility ([2]; in propylene glycol): 30%
saturated solubility ([2]; in propylene glycol monolaurate): 30%
saturated solubility ([2]; in water): 0.0008%
Compound: CC(C)c1c(O)cc(CCc2ccccc2)cc1O [2-isopropyl-5-(2′-phenylethyl)-1,3-benzenediol]
